Test results taken from US20240239774A1, “SOLUBLE ADENYLYL CYCLASE (SAC) INHIBITORS AND USES THEREOF” (Cornell University, priority 2021, published 2024).
Entries after “also recorded” stand apart in the source; their conditions may differ.

Assays:
[1] = Serum levels after single i.p. injection; assay type: in vivo, mouse; conditions: single intraperitoneal (i.p.) injection
epididymal mouse sperm = experiment: Ex vivo sperm motility (CASA) from injected mice; assay type: in vivo; conditions: for sperm motility ex vivo: one hour post-injection, diluted 1:200 in inhibitor-free media
Description: For ex vivo assessment of mouse sperm from inhibitor-injected mice, sperm (25 μl) isolated at the indicated time points (1 hour to 24 hours post-injection) were loaded on a […] Leja slide (Hamliton Thorne) and placed on a microscope stage at 37° C. Sperm movements of 10 fields of at least 500 sperm were examined using computer-assisted sperm analysis (CASA) via Hamilton-Thorne digital image analyzer (IVOS II, Hamilton Thorne Research, Beverly, MA) with the following parameters: 30 frames, frame rate: 60 Hz, cell size: 30-170 μm^2.

human sperm [2] = experiment: Flagellar beat analysis of single sperm; conditions: stimulation with 25 mM NaHCO3; 0.2 μM Example 1 (FIG. 13), 10 nM Example 133
Description: Motile sperm were allowed to swim up into the HTF layer, while immotile sperm, as well as other cells or tissue debris, did remain in the ejaculate fraction.
An inverted dark-field video microscope (IX73; Olympus) with a 10× objective (mouse sperm) and a 20× objective (human sperm) (UPLSAPO, NA 0.8; Olympus) was combined with a high-speed camera (ORCA Fusion; Hamamatsu). Dark-field videos were recorded with a frame rate of 200 Hz. The temperature of the heated stage was set to 37° C. (stage top incubator WSKMX; TOKAI HIT).
An inverted dark-field video microscope (IX73; Olympus) with a 10×objective (mouse sperm) or a 20×objective (human sperm) (UPLSAPO, NA 0.8; Olympus) was combined with a high-speed camera (ORCA Fusion; Hamamatsu). Dark-field videos were recorded with a frame rate of 200 Hz. The temperature of the heated stage was set to 37° C. (stage top incubator WSKMX; TOKAI HIT). The images were preprocessed with the imageJ plugin SpermQ Preparator (Gaussian blur with sigma 0.5 px; Subtract background method with radius 5 px) and analyzed using the ImageJ plugin SpermQ [Reference 84]. The beat frequency was determined from the highest peak in the frequency spectrum of the curvature time course, obtained by Fast Fourier Transform.

mouse sperm [3] = experiment: Intracellular cAMP in sperm in vitro; assay type: cell-based; conditions: for bicarbonate-induced cAMP rise: 5 μM Example 1 or 10 nM Example 133, capacitating media, 12 minutes
Description: (§1) cAMP generation was measured in mouse and human sperm. For mouse sperm, aliquots of 2×10^6 mouse sperm were incubated for 12 minutes in the presence or absence of sAC inhibitor in non-capacitating or capacitating TYH buffer. For human sperm, aliquots of 2×10^6 human sperm were incubated for 30 minutes in the presence or absence of sAC inhibitor in non-capacitating or capacitating HTF buffer. In both cases, 0.1% DMSO was used as vehicle control.
(§2) After 5 min, 150 μl of sperm/inhibitor mix was diluted into 1.35 ml non-capacitating or capacitating media with no inhibitor. After 12 minutes (mouse sperm) or 30 minutes (human sperm), sperm were sedimented by centrifugation at 2,000×g for 3 minutes and lysed in 200 μl HCl for 10 minutes. Sperm lysates were centrifuged at 2,000×g for 3 minutes and the cAMP in the supernatant was acetylated and quantified using the Direct cAMP ELISA (Enzo).

human sperm [4] = experiment: Intracellular cAMP in sperm in vitro; assay type: cell-based; conditions: for bicarbonate-induced cAMP rise: 5 μM Example 1 or 10 nM Example 133, capacitating media
Description: as §1, §2

human sperm [5] = experiment: Human sperm hyperactivation (CASA); assay type: cell-based; conditions: for hyperactivation of human sperm in vitro: capacitating media, inhibitor present; for inhibition of hyperactivation following dilution into inhibitor-free media: preincubation with 10 μM Example 1 or 100 nM Example 133, diluted 1:100
Description: For human sperm, hyperactivation was assessed via CASA following incubation for 1 hour in non-capacitating HTF buffer or capacitating HTF buffer supplemented with 25 mM HCO3 and 5 mg/ml BSA in the presence or absence of the indicated concentration of sAC inhibitor; 0.1% DMSO was used as vehicle control. For rescue experiments, sperm were incubated in the presence of 5 mM db-cAMP and 500 μM IBMX. 8 μl sperm suspension was placed onto a microscope slide (Gold Seal, Erie Scientific, Portsmouth, NH) and covered with a 18×18 mm coverslip (globe Scientific, Mahway, NJ) to create a […] imaging chamber. CASA was performed following analysis guidelines provided by the company, i.e., 30 frames were acquired at a rate of 60 Hz, at least 200 sperm were analyzed per condition. The following parameters were measured: mean path velocity (VAP, μm/sec), curvilinear velocity (VCL, μm/sec), straight-line velocity (VSL, μm/sec), amplitude of lateral head displacement (ALH, μm), and beat cross frequency (BCF, Hz). Human sperm were considered hyperactivated when presenting VCL ≥150 μm/sec, LIN <50%, and ALH ≥[…].
Motility parameters were determined 1 to 45 minutes post dilution, DMSO-treated non-capacitated and capacitated human sperm were used as control. To calculate the percentage of inhibition, the hyperactivation percentage of sperm diluted in inhibitor-containing- or inhibitor-free media was normalized to the hyperactivation percentage of vehicle-treated capacitated sperm at the respective time point and subtracted from 100%.

immobilized sAC protein = experiment: Binding kinetics by surface plasmon resonance
Description: After coupling, remaining reactive groups on the chip's surface were blocked with 1 M ethanolamine followed by 350 mM EDTA to wash away any free Ni^2+. […] All experiments included reference channels; i.e., inhibitor run over parallel channels without immobilized protein. Binding kinetics were determined by subtracting responses in the reference channels from responses in the active channels. Curves were fitted, and kon and koff values were determined using the Biacore 8K Insight Evaluation Software Version 2.0 (Cytiva) and a 1:1 binding kinetics model.

mouse sperm [6] = experiment: Ex vivo sperm tyrosine phosphorylation (Western blot) from injected mice; assay type: in vivo; conditions: 50 mg/kg i.p., one hour post injection
Description: After 15 minutes swim-out at 37° C., sperm from two caudae were combined and counted using a hematocytometer. For capacitation, sperm were incubated for 90 minutes in TYH containing 3 mg/ml BSA and 25 mM NaHCO3 in a 37° C. incubator. To control for the consequences of dilution during isolation of epididyrnal mouse sperm for ex vivo assays, the ability for bicarbonate to induce a prototypical pattern of tyrosine phosphorylation (pY) which is a widely used molecular hallmark of capacitation was assessed [Reference 80]. Bicarbonate-induced pY is known to be sAC dependent in vitro [References 37, 46, 62]. For experiments studying sperm from injected mice, ‘swim out’ was performed in 200 μl TYH, which corresponded to a 1:10 dilution from epididymis ([…] in 200 μl buffer). Capacitation induced changes were assessed by adding 50 μl of ‘swim out’ sperm to increasing volumes of non-capacitating or capacitating TYH buffer.
Mouse sperm from vehicle or inhibitor-injected mice were isolated 1 hour from male mice injected (i.p.) with 150 μl of solution containing sAC inhibitor or vehicle. Sperm were diluted 1:20 to 1:1000 in capacitating TYH media. As control, sperm from vehicle-injected mice were diluted 1:1000 in non-capacitating and capacitating TYH buffer. The samples were incubated for 90 minutes, washed with 1 ml PBS and sedimented by centrifugation at 2,000×g for 3 minutes. The sedimented sperm were resuspended in 15 μl 2× Laemmli sample buffer [Reference 83], heated for 5 minutes at 95° C., supplemented with 8 μl β-mercaptoethanol and heated again for 5 minutes at 95° C. For Western blot analysis, proteins were transferred onto PVDF membranes (Thermo Scientific), probed with anti-phosphotyrosine antibodies, and analyzed using a cherniluminescence detection system. Image lab (Bio-Rad) was used for densitometric analysis of Western blots.

[7] = preincubation 5 min in 5 μM Example 1 or 10 nM Example 133, then dilution (legend 1:10; text 100-fold)
[8] = swim out sperm minimally diluted

SMILES	time to maximum serum levels (C max) [1] [min]	sperm that recovered (progressive) motility (epididymal mouse sperm; 50 mg/kg i.p., 9 hours post injection, diluted 1:200) [%]	sperm motility ex vivo (epididymal mouse sperm; 50 mg/kg i.p.)	cytotoxicity to sperm (epididymal mouse sperm; exogenous membrane-permeable cAMP rescued motility)	bicarbonate-induced change in flagellar beating / beat frequency (human sperm [2])	bicarbonate-induced cAMP rise (mouse sperm [3])	inhibition of bicarbonate-induced cAMP synthesis after dilution into inhibitor-free media (mouse sperm [3]; [7])	bicarbonate-induced cAMP rise (human sperm [4])	inhibition of bicarbonate-induced cAMP synthesis after dilution into inhibitor-free media (human sperm [4]; [7])	hyperactivation of human sperm in vitro (human sperm [5])	inhibition of hyperactivation following dilution into inhibitor-free media (human sperm [5])	off-rate (T1/2) (immobilized sAC protein) [min]	capacitation-induced tyrosine phosphorylation (pY) pattern ex vivo (mouse sperm [6]; diluted 100 fold)	capacitation-induced tyrosine phosphorylation (pY) pattern ex vivo (mouse sperm [6]; [8])	capacitation-induced tyrosine phosphorylation (pY) pattern ex vivo (mouse sperm [6]; diluted 25 fold)
Nc1nc(Cl)cc(-c2nn(C(F)F)cc2Cc2ccccc2OCCN2CCOC[C@H]2CO)n1 [Example 133]	≤ 7.5	20	essentially immotile	not cytotoxic	more potent than Example 1	completely block	survived a 100-fold dilution; also recorded: inhibits capacitation induced cAMP rise in diluted sperm	completely block	survived a 100-fold dilution; also recorded: inhibits capacitation induced cAMP rise in diluted sperm	blocked hyperactivation	persisted	75.8	remained blocked	blocked	–
Cc1c(Cc2ccccc2)c(-c2cc(Cl)nc(N)n2)nn1C [Example 1, 4-(4-benzyl-1,5-dimethyl-pyrazol-3-yl)-6-chloro-pyrimidin-2-amine]	≤ 7.5	–	indistinguishable from sperm isolated from vehicle-injected mice	–	prevents bicarbonate-induced changes in flagellar beating pattern	blocks the bicarbonate-induced cAMP rise	–	blocks the bicarbonate-induced cAMP rise	–	blocked hyperactivation	lost	0.333	–	blocked	restored
